Experimental data as given in ChEMBL document CHEMBL4334438, “Discovery of novel glycogen synthase kinase-3α inhibitors: Structure-based virtual screening, preliminary SAR and biological evaluation for treatment of acute myeloid leukemia” (Eur J Med Chem, 2019).

Legend:
[1] = target: Transcription initiation factor TFIID subunit 1-like (Homo sapiens) (UniProt Q8IZX4); assay: Inhibition of human TAF1L (1428 to end residues) assessed as residual activity at 1 uM using RRRFRPASPLRGPPK as substrate measured after 120 mins in presence of [gamma33P]ATP by scintillation counting method relative to control
[2] = target: Serine/threonine-protein kinase NLK (Homo sapiens) (UniProt Q9UBE8); assay: Inhibition of recombinant human NLK (121 to end residues) assessed as residual activity at 1 uM using myelin basic protein as substrate measured after 40 mins in presence of [gamma33P]ATP by scintillation counting method relative to control
[3] = target: T1, cGMP-dependent protein kinase 1 (Homo sapiens) (UniProt Q13976); assay: Inhibition of recombinant full-length human PKG1alpha assessed as residual activity at 1 uM using RRRLSFAEPG as substrate measured after 40 mins in presence of [gamma33P]ATP by scintillation counting method relative to control
T1 sequence (whole entry): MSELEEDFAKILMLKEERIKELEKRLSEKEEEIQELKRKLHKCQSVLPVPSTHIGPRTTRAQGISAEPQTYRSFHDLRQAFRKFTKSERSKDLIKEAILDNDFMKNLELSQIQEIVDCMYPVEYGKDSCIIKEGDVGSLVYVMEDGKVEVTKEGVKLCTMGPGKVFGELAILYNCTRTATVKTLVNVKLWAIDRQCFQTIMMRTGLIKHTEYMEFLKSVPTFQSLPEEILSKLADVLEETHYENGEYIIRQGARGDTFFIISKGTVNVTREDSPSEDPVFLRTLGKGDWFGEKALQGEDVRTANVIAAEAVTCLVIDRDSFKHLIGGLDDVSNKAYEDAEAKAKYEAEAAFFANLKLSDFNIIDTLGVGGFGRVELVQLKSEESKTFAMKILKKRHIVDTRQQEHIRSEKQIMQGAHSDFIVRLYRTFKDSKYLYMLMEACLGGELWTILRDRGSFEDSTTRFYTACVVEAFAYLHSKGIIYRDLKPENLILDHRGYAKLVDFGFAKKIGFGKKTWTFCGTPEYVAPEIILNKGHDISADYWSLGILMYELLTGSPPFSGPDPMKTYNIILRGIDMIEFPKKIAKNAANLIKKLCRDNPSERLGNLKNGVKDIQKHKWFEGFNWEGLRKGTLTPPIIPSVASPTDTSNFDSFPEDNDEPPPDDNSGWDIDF

[4] = target: Beta-adrenergic receptor kinase 1 (Homo sapiens) (UniProt P25098); assay: Inhibition of recombinant full length human GRK2 assessed as residual activity at 1 uM using casein as substrate at 40 mins in presence of [gamma-33ATP] by scintillation counting based radiometry assay relative to control
[5] = target: MAPK/MAK/MRK overlapping kinase (Homo sapiens) (UniProt Q9UQ07); assay: Inhibition of recombinant human MOK (1 to 343 residues) assessed as residual activity at 1 uM using RSRSRSRSRSRSRSR as substrate measured after 40 mins in presence of [gamma33P]ATP by scintillation counting method relative to control
[6] = target: Serine/threonine-protein kinase PLK3 (Homo sapiens) (UniProt Q9H4B4); assay: Inhibition of recombinant human Plk3 (19 to 301 residues) assessed as residual activity at 1 uM using casein as substrate measured after 40 mins in presence of [gamma33P]ATP by scintillation counting method relative to control
[7] = target: Tyrosine-protein kinase Lck (Homo sapiens) (UniProt P06239); assay: Inhibition of recombinant full length human LCK assessed as residual activity at 1 uM using KVEKIGEGTYGVVYK as substrate after 40 mins in presence of [gamma-33ATP] by scintillation counting based radiometry assay relative to control
[8] = target: Ephrin type-A receptor 8 (Homo sapiens) (UniProt P29322); assay: Inhibition of recombinant human EphA8 (615 to 911 residues) assessed as residual activity at 1 uM using KTFCGTPEYLAPEVRREPRILSEEEQEMFRDFDYIADWC as substrate at 40 mins in presence of [gamma-33ATP] by scintillation counting based radiometry assay relative to control
[9] = target: Insulin receptor (Homo sapiens) (UniProt P06213); assay: Inhibition of human activated IR (1005 to 1310 residues) assessed as residual activity at 1 uM using KKKSPGEYVNIEFG as substrate after 40 mins by [gamma-33ATP] radiometric assay relative to control
[10] = target: Calcium/calmodulin-dependent protein kinase type IV (Homo sapiens) (UniProt Q16566); assay: Inhibition of recombinant full length human CaMK4 assessed as residual activity at 1 uM […] incubated for 40 mins in presence of [gamma-33ATP] by scintillation counting based radiometry assay relative to control
[11] = target: Serine/threonine-protein kinase ULK1 (Homo sapiens) (UniProt O75385); assay: Inhibition of human ULK1 (1 to 314 residues) assessed as residual activity at 1 uM using casein as substrate measured after 40 mins in presence of [gamma33P]ATP by scintillation counting method relative to control
[12] = tested on: Platelet-derived growth factor receptor alpha (Homo sapiens), P16234 [V561D]; assay: Inhibition of human PDGFRalpha V561D mutant (550 to end residues) assessed as residual activity at 1 uM using GGMEDIYFEFMGGKKK as substrate measured after 40 mins in presence of [gamma33P]ATP by scintillation counting method relative to control
[13] = target: Ribosomal protein S6 kinase alpha-5 (Homo sapiens) (UniProt O75582); assay: Inhibition of recombinant human MSK1 (2 to end residues) assessed as residual activity at 1 uM using GRPRTSSFAEGKK as substrate measured after 40 mins in presence of [gamma33P]ATP by scintillation counting method relative to control
[14] = target: T1, cGMP-dependent protein kinase 1 (Homo sapiens); assay: Inhibition of recombinant full-length human PKG1beta assessed as residual activity at 1 uM using RRRLSFAEPG as substrate measured after 40 mins in presence of [gamma33P]ATP by scintillation counting method relative to control
[15] = organism: Homo sapiens; assay: Inhibition of recombinant full-length human PI3K p120gamma R459Q mutant at 1 uM assessed as residual activity at 1 uM using phosphatidylinositol-4, 5-bisphosphate as substrate measured after 40 mins by fluorescence assay
[16] = target: Insulin receptor-related protein (Homo sapiens) (UniProt P14616); assay: Inhibition of human IRR (943 to 1266 residues) assessed as residual activity at 1 uM using myelin basic protein as substrate after 40 mins by [gamma-33ATP] radiometric assay relative to control
[17] = target: DNA-dependent protein kinase catalytic subunit (Homo sapiens) (UniProt P78527); assay: Inhibition of recombinant full-length human DNA-PK at 1 uM assessed as residual activity at 1 uM using GST-cMyc-p53 as substrate measured after 40 mins by fluorescence assay
[18] = target: Tyrosine-protein kinase Fgr (Homo sapiens) (UniProt P09769); assay: Inhibition of recombinant human FGR (2 to end residues) assessed as residual activity at 1 uM using poly(Glu, Tyr) 4:1 as substrate at 40 mins in presence of [gamma-33ATP] by scintillation counting based radiometry assay relative to control
Tyrosine-protein kinase Fgr (Homo sapiens), sequence (P09769 2-529 limits assumed): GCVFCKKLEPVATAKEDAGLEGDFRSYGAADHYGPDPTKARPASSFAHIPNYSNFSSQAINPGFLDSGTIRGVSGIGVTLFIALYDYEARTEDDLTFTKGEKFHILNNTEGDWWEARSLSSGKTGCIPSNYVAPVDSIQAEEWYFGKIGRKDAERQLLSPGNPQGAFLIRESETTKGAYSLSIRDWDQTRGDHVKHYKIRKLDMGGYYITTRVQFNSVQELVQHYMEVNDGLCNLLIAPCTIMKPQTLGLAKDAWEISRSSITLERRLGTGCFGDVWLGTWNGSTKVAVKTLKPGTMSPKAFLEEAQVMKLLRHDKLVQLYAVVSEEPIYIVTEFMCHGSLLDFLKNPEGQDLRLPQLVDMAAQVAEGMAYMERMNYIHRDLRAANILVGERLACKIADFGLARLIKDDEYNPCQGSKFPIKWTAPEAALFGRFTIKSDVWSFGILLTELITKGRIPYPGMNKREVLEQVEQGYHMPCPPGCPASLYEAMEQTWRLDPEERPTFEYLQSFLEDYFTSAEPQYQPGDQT

Insulin receptor-related protein (Homo sapiens), sequence (P14616 27-742 limits assumed): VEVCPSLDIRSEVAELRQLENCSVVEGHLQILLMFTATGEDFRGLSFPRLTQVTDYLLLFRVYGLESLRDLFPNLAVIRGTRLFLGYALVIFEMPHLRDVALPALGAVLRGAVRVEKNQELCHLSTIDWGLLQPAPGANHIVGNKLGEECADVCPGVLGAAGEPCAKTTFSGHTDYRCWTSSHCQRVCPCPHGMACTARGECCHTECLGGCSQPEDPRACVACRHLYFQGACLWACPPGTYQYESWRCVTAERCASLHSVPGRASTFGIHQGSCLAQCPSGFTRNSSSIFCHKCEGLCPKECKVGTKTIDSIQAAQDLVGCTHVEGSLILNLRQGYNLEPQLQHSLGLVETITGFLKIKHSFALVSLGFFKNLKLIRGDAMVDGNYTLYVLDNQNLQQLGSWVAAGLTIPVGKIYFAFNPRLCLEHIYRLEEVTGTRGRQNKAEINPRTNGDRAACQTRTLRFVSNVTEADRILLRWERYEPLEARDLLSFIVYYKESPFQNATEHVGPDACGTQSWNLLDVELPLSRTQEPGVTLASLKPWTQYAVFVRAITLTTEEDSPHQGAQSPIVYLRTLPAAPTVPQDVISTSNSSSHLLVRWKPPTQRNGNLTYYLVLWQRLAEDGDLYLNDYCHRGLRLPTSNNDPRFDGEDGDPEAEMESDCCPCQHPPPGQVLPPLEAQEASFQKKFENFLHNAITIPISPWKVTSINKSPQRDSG
Insulin receptor-related protein (Homo sapiens), sequence (P14616 747-1297 limits assumed): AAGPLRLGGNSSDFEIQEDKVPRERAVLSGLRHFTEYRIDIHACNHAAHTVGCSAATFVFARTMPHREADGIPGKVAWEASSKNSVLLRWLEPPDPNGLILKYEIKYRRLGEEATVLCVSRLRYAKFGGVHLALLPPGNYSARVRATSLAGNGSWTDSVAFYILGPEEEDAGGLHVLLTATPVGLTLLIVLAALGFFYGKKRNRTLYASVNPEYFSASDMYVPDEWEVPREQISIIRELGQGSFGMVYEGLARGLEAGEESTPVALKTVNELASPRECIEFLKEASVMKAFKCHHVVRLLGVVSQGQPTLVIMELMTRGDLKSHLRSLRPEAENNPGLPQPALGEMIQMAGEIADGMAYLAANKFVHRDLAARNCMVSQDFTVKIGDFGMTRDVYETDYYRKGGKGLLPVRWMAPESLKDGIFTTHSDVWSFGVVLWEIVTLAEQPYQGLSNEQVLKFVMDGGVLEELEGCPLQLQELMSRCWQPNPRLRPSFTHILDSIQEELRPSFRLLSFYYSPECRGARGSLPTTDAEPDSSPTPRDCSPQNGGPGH
Beta-adrenergic receptor kinase 1 (Homo sapiens), sequence (P25098 whole entry, the tested form may be a part): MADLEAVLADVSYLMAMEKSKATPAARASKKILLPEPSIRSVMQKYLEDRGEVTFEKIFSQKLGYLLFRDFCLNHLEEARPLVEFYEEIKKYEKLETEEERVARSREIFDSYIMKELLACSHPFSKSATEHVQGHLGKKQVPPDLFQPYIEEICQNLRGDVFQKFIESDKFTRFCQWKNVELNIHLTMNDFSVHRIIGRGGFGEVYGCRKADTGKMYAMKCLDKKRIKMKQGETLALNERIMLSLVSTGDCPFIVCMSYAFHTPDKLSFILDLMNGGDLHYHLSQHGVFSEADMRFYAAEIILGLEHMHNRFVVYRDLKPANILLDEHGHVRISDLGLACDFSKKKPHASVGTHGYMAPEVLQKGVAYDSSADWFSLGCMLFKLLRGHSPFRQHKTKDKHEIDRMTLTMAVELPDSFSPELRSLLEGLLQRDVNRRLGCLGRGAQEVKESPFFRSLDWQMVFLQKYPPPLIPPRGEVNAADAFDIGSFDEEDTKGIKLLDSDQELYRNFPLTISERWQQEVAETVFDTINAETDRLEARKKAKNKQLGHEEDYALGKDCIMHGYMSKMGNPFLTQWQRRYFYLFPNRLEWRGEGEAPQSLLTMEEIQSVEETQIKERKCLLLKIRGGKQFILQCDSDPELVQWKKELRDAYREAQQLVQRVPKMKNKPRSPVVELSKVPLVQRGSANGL
Serine/threonine-protein kinase ULK1 (Homo sapiens), sequence (O75385 whole entry, the tested form may be a part): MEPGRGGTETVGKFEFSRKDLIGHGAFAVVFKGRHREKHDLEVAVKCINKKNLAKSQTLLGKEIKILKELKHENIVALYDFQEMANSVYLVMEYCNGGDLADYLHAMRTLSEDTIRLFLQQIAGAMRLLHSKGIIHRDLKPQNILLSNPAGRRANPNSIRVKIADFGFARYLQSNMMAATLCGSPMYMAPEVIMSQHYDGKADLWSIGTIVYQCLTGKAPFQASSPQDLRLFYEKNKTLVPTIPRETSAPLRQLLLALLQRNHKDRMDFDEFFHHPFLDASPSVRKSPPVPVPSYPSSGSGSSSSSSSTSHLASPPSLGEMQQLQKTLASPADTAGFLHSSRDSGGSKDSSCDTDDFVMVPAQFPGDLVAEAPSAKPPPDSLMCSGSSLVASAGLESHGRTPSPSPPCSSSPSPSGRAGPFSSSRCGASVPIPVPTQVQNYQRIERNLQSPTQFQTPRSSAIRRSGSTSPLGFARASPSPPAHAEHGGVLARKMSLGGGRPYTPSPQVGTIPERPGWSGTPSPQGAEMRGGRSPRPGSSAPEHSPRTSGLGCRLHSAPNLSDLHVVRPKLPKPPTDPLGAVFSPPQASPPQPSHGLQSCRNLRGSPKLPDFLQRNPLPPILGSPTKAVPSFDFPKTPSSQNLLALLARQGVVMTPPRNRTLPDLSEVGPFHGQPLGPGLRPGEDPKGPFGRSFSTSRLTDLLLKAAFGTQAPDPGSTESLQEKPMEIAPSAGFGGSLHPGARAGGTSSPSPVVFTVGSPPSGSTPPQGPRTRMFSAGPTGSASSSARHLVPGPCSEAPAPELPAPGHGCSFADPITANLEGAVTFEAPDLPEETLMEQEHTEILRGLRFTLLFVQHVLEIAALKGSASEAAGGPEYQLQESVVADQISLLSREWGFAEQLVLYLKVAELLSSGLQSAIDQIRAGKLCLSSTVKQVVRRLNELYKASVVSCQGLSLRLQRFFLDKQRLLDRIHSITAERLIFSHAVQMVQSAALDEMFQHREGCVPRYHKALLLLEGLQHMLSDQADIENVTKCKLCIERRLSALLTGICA
Serine/threonine-protein kinase PLK3 (Homo sapiens), sequence (Q9H4B4 whole entry, looked up, the tested form may be a part): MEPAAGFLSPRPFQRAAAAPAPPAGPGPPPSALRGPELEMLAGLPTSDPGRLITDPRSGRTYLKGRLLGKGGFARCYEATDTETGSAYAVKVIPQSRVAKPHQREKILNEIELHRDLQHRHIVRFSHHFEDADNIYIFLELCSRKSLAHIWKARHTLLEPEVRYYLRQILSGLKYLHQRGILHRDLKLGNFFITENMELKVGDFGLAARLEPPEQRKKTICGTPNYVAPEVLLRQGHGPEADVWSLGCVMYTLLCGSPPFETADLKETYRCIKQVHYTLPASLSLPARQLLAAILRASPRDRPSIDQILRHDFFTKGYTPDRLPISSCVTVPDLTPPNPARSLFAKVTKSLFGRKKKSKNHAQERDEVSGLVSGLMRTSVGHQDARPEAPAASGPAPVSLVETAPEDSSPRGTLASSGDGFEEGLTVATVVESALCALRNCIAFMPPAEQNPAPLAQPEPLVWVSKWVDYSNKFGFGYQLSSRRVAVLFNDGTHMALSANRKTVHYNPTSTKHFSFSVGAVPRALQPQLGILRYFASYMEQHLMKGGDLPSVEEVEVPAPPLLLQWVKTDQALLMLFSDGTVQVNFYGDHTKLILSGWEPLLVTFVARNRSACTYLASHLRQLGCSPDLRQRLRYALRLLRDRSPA
MAPK/MAK/MRK overlapping kinase (Homo sapiens), sequence (Q9UQ07 whole entry, the tested form may be a part): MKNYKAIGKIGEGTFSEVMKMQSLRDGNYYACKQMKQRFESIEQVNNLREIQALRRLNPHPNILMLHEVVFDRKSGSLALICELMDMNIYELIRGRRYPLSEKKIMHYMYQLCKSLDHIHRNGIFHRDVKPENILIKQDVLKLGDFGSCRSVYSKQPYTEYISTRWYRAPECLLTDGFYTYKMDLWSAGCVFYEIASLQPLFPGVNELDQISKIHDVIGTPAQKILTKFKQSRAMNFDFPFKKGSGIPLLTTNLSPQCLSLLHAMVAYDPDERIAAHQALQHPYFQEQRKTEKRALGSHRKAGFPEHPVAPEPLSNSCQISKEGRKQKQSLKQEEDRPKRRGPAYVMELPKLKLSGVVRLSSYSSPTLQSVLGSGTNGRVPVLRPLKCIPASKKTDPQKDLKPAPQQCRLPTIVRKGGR

With `N=C1NC(=O)/C(=C\c2ccc(-c3cccc([N+](=O)[O-])c3)o2)S1` the Activity [1] was 51%, the Activity [2] was 59% and the Activity [3] was 71%. It also gave an Activity [4] of 98%, an Activity [5] of 101% and an Activity [6] of 108%. The Activity [7] was 89%, the Activity [8] was 94% and the Activity [9] was 103%. It also gave an Activity [10] of 87%, an Activity [11] of 98% and an Activity [12] of 91%. It also gave an Activity [13] of 95%, an Activity [14] of 82% and an Activity [15] of 93%. For the same compound, the Activity [16] was 55%, the Activity [17] was 93% and the Activity [18] was 81%.

`C=CCOC(=O)c1cc(-c2ccc(/C=C3/NC(=S)NC3=O)o2)ccc1Cl` showed an Activity [1] of 66%, an Activity [2] of 64% and an Activity [3] of 93%. For the same compound, the Activity [4] was 101%, the Activity [5] was 118% and the Activity [6] was 98%. For the same compound, the Activity [7] was 86%, the Activity [8] was 99% and the Activity [9] was 106%. It also gave an Activity [10] of 95%, an Activity [11] of 98% and an Activity [12] of 110%. The Activity [13] was 100%, the Activity [14] was 100% and the Activity [15] was 93%. The Activity [16] was 45%, the Activity [17] was 107% and the Activity [18] was 90%.
